This is an account of results in ChEMBL document CHEMBL3588856, “Structure-Based Development of a Protein-Protein Interaction Inhibitor Targeting Tumor Necrosis Factor Receptor-Associated Factor 6” (J Med Chem, 2015).

Usually inhibition stands for the change of the read-out against control, counted positive when it falls. Broadly, the Kd is the free concentration of one partner at which half of the binding sites on the other are occupied at equilibrium, for simple one-to-one binding.

Activity calls are given as the source filed them. No cut-off for these calls is given here.

Data set [1] in a line: Cytotoxicity against BALB/c mouse primary bone marrow derived monocytes after 7 days by osteoclast differentiation/AlamarBlue assay. The class given is cell-based. As to conditions: monocyte, 168 h. On the technique in general: Resazurin is reduced to fluorescent resorufin, in cell work by metabolically active cells.
Data set [2] addresses T1, TNF receptor-associated factor 6 (Homo sapiens) (UniProt Q9Y4K3).
T1 sequence (whole entry): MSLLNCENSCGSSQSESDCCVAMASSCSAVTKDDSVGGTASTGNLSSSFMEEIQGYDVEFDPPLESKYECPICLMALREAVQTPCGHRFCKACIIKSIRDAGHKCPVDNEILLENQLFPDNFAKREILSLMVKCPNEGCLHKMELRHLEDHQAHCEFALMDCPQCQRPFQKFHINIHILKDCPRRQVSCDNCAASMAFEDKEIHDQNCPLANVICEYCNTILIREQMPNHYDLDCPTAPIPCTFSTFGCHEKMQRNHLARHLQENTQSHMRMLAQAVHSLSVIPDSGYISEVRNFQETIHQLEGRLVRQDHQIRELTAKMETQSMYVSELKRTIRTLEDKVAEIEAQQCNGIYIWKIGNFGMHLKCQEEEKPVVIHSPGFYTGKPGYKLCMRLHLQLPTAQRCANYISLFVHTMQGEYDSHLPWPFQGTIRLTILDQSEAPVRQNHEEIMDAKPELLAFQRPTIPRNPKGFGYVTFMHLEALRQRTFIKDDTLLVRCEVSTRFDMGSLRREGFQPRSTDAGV
The experiment in a line: Binding affinity to human TRAF6 using immobilized biotinylated RANK peptide from by SPR analysis. (In general: SPR reads the build-up and loss of mass on a sensor chip optically.)

For data set [3], the system named is Monocyte. The experiment in a line: Inhibition of BALB/c mouse primary bone marrow derived monocytes differentiation after 7 days by osteoclast differentiation assay. The class given is functional, cell-based.
The target in data set [4] is T1, TNF receptor-associated factor 6 (Homo sapiens). Nature of the data set: Induction of human TRAF6 aggregation by NMR titration.
For data set [5], the target named is T2, TNF receptor-associated factor 6 (Homo sapiens, UniProt Q9Y4K3).
T2 sequence (Q9Y4K3 whole entry): T1 sequence (whole entry)
Nature of the data set: Inhibition of human TRAF6 interaction with biotinylated RANK peptide by NMR interaction analysis.

The target in data set [6] is T1, TNF receptor-associated factor 6 (Homo sapiens). As to conditions: 200 uM.
Description: Competitive inhibition of human TRAF6 interaction with biotinylated RANK peptide at 200 uM by NMR interaction analysis
In data set [7] the test system is Monocyte. The experiment in a line: Inhibition of BALB/c mouse primary bone marrow derived monocytes differentiation after 7 days at 150 uM by osteoclast differentiation assay. The class given is functional. As to conditions: 168 h.

Regarding `O=C(Cn1c(=O)sc2ccccc21)Nc1ccc(C(=O)O)cc1`, in data set [1], the Activity entry is on record as “Non-toxic”. The inhibition result in data set [2] and in data set [3] was “Active” each time. Also, in data set [4], the outcome was inactive. Further, in data set [5], the affinity, expressed as Kd, was 1900 µM.
As for `COc1ccc(S(=O)(=O)NC(=O)c2ccc(NC(=O)Cn3c(=O)sc4ccc(Cl)cc43)cc2)cc1Cl`, the inhibition result in data set [6] was “Active”. For the same molecule, in data set [4], the outcome was inactive. This molecule showed a Kd in data set [5] of 35 µM. The same molecule yielded an inhibition at 150 µM in data set [7] of 40%.
In turn, `O=C(Cn1c(=O)sc2ccc(Cl)cc21)Nc1ccc(C(=O)O)cc1` showed a Kd in data set [5] of 1700 µM.
On to `CS(=O)(=O)NC(=O)c1ccc(NC(=O)Cn2c(=O)sc3ccc(Cl)cc32)cc1`, for which, in data set [5], binding was characterised by a dissociation constant (Kd) of 990 µM.
